Test results reported in patent US8802597B2, “Herbicidal pyrimidines” (E I du Pont de Nemours and Company, priority 2003, dated 2014).

Key:
Experiment in all cases: Test C pre/postemergence
Format in all cases: in vivo
[1] = system: Surinam grass (Brachiaria decumbens); conditions: for Plant response rating (scale of 0 to 100), Surinam Grass / Surinam Grass plant response rating: Postemergence; for Surinam Grass plant response rating: scale 0 to 100 (0 no effect, 100 complete control); for Plant response rating, Surinam Grass: Preemergence
Outline: (§1)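 Rating scale 0–100: 0 means no effect, 100 complete control; taken visually 12 to 14 days post-treatment versus controls. Pre- and postemergence greenhouse applications, postemergence at 1- to 4-leaf stage, non-phytotoxic solvent with surfactant as carrier.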

[2] = system: bermudagrass (Cynodon dactylon); conditions: for Plant response rating (scale of 0 to 100), Bermudagrass / Bermudagrass plant response rating: Postemergence; for Bermudagrass plant response rating: scale 0 to 100 (0 no effect, 100 complete control); for Plant response rating, Bermudagrass: Preemergence
Outline: as §1

[3] = system: cocklebur (Xanthium strumarium); conditions: for Plant response rating (scale of 0 to 100), Cocklebur / Cocklebur plant response rating: Postemergence; for Cocklebur plant response rating: scale 0 to 100 (0 no effect, 100 complete control); for Plant response rating, Cocklebur: Preemergence
Outline: as §1

[4] = system: common (oilseed) sunflower (Helianthus annuus); conditions: Preemergence
Outline: as §1

[5] = system: common ragweed (Ambrosia elatior); conditions: for Plant response rating (scale of 0 to 100), Ragweed / Ragweed plant response rating: Postemergence; for Ragweed plant response rating: scale 0 to 100 (0 no effect, 100 complete control); for Plant response rating, Ragweed: Preemergence
Outline: as §1

[6] = system: corn (Zea mays); conditions: for Plant response rating (scale of 0 to 100), Corn / Corn plant response rating: Postemergence; for Corn plant response rating: scale 0 to 100 (0 no effect, 100 complete control); for Plant response rating, Corn: Preemergence
Outline: as §1

[7] = system: eastern black nightshade (Solanum ptycanthum); conditions: Preemergence
Outline: as §1

[8] = system: johnsongrass (Sorghum halepense); conditions: for Johnsongrass plant response rating: Postemergence, scale 0 to 100 (0 no effect, 100 complete control); for Plant response rating, Johnsongrass: Preemergence
Outline: as §1

[9] = system: kochia (Kochia scoparia); conditions: for Plant response rating (scale of 0 to 100), Kochia / Kochia plant response rating: Postemergence; for Kochia plant response rating: scale 0 to 100 (0 no effect, 100 complete control); for Plant response rating, Kochia: Preemergence
Outline: as §1

[10] = system: morningglory (Ipomoea coccinea); conditions: for Plant response rating (scale of 0 to 100), Morningglory / Morningglory plant response rating: Postemergence; for Morningglory plant response rating: scale 0 to 100 (0 no effect, 100 complete control); for Plant response rating, Morningglory: Preemergence
Outline: as §1

[11] = system: pigweed (Amaranthus retroflexus); conditions: for Plant response rating (scale of 0 to 100), Pigweed / Pigweed plant response rating: Postemergence; for Pigweed plant response rating: scale 0 to 100 (0 no effect, 100 complete control); for Plant response rating, Pigweed: Preemergence
Outline: as §1

[12] = system: woolly cupgrass (Eriochloa villosa); conditions: for Plant response rating (scale of 0 to 100), Cupgrass, Woolly / Cupgrass, Woolly plant response rating: Postemergence; for Cupgrass, Woolly plant response rating: scale 0 to 100 (0 no effect, 100 complete control); for Plant response rating, Cupgrass, Woolly: Preemergence
Outline: as §1

[13] = 16 g ai/ha, scale 0 to 100, 0 no effect, 100 complete control
[14] = 31 g ai/ha, scale 0 to 100, 0 no effect, 100 complete control
[15] = 62 g ai/ha, scale 0 to 100, 0 no effect, 100 complete control

CCOC(=O)C(OC(C)=O)c1nc(C2CC2)nc(N)c1Br (stereo not drawn) [Compound 47]
15: Bermudagrass plant response rating ([2]; 125 g ai/ha) | Plant response rating (scale of 0 to 100), Pigweed ([11]; 31 g ai/ha)
85: Plant response rating, Nightshade [7, 14] | Plant response rating, Pigweed [11, 15] | Plant response rating, Pigweed ([11]; 125 g ai/ha, scale 0 to 100)
0: Plant response rating (scale of 0 to 100), Surinam Grass ([1]; 16 g ai/ha) | Plant response rating (scale of 0 to 100), Surinam Grass ([1]; 31 g ai/ha) | Surinam Grass plant response rating ([1]; 62 g ai/ha) | Plant response rating, Surinam Grass [1, 13] | Plant response rating, Surinam Grass [1, 14] | Plant response rating, Surinam Grass [1, 15] | Plant response rating, Surinam Grass ([1]; 125 g ai/ha, scale 0 to 100) | Plant response rating (scale of 0 to 100), Bermudagrass ([2]; 16 g ai/ha) | Plant response rating (scale of 0 to 100), Bermudagrass ([2]; 31 g ai/ha) | Bermudagrass plant response rating ([2]; 62 g ai/ha) | Plant response rating, Bermudagrass [2, 13] | Plant response rating, Bermudagrass [2, 14] | Plant response rating, Bermudagrass [2, 15] | Plant response rating, Cocklebur [3, 13] | Plant response rating, Cocklebur [3, 14] | Plant response rating, Sunflower [4, 13] | Plant response rating, Sunflower [4, 14] | Plant response rating (scale of 0 to 100), Ragweed ([5]; 16 g ai/ha) | Plant response rating (scale of 0 to 100), Ragweed ([5]; 31 g ai/ha) | Plant response rating, Ragweed [5, 13] | Plant response rating (scale of 0 to 100), Corn ([6]; 16 g ai/ha) | Plant response rating (scale of 0 to 100), Corn ([6]; 31 g ai/ha) | Corn plant response rating ([6]; 62 g ai/ha) | Corn plant response rating ([6]; 125 g ai/ha) | Plant response rating, Corn [6, 13] | Plant response rating, Corn [6, 14] | Plant response rating, Corn [6, 15] | Plant response rating, Corn ([6]; 125 g ai/ha, scale 0 to 100) | Johnsongrass plant response rating ([8]; 62 g ai/ha) | Johnsongrass plant response rating ([8]; 125 g ai/ha) | Plant response rating, Johnsongrass [8, 13] | Plant response rating, Johnsongrass [8, 14] | Plant response rating, Johnsongrass [8, 15] | Plant response rating, Johnsongrass ([8]; 125 g ai/ha, scale 0 to 100) | Plant response rating (scale of 0 to 100), Kochia ([9]; 16 g ai/ha) | Plant response rating (scale of 0 to 100), Kochia ([9]; 31 g ai/ha) | Plant response rating, Kochia [9, 13] | Plant response rating, Kochia [9, 15] | Plant response rating, Morningglory [10, 13] | Plant response rating, Morningglory [10, 14] | Plant response rating (scale of 0 to 100), Pigweed ([11]; 16 g ai/ha) | Plant response rating, Pigweed [11, 13] | Plant response rating (scale of 0 to 100), Cupgrass, Woolly ([12]; 16 g ai/ha) | Plant response rating (scale of 0 to 100), Cupgrass, Woolly ([12]; 31 g ai/ha) | Cupgrass, Woolly plant response rating ([12]; 62 g ai/ha) | Cupgrass, Woolly plant response rating ([12]; 125 g ai/ha) | Plant response rating, Cupgrass, Woolly [12, 13] | Plant response rating, Cupgrass, Woolly [12, 14] | Plant response rating, Cupgrass, Woolly [12, 15] | Plant response rating, Cupgrass, Woolly ([12]; 125 g ai/ha, scale 0 to 100)
75: Plant response rating, Cocklebur ([3]; 125 g ai/ha, scale 0 to 100)
20: Surinam Grass plant response rating ([1]; 125 g ai/ha) | Plant response rating, Sunflower [4, 15] | Kochia plant response rating ([9]; 62 g ai/ha) | Plant response rating (scale of 0 to 100), Morningglory ([10]; 16 g ai/ha)
65: Cocklebur plant response rating ([3]; 125 g ai/ha) | Plant response rating, Ragweed ([5]; 125 g ai/ha, scale 0 to 100) | Morningglory plant response rating ([10]; 125 g ai/ha)
80: Ragweed plant response rating ([5]; 125 g ai/ha) | Plant response rating, Nightshade [7, 13] | Plant response rating, Pigweed [11, 14]
70: Plant response rating, Cocklebur [3, 15] | Plant response rating, Morningglory [10, 15] | Pigweed plant response rating ([11]; 125 g ai/ha)
100: Plant response rating, Sunflower ([4]; 125 g ai/ha, scale 0 to 100) | Plant response rating, Nightshade ([7]; 125 g ai/ha, scale 0 to 100) | Kochia plant response rating ([9]; 125 g ai/ha) | Plant response rating, Kochia ([9]; 125 g ai/ha, scale 0 to 100) | Plant response rating, Morningglory ([10]; 125 g ai/ha, scale 0 to 100)
45: Plant response rating (scale of 0 to 100), Cocklebur ([3]; 31 g ai/ha) | Plant response rating, Ragweed [5, 15] | Pigweed plant response rating ([11]; 62 g ai/ha)
40: Ragweed plant response rating ([5]; 62 g ai/ha) | Morningglory plant response rating ([10]; 62 g ai/ha)
35: Plant response rating (scale of 0 to 100), Cocklebur ([3]; 16 g ai/ha) | Plant response rating (scale of 0 to 100), Morningglory ([10]; 31 g ai/ha)
60: Cocklebur plant response rating ([3]; 62 g ai/ha)
95: Plant response rating, Bermudagrass ([2]; 125 g ai/ha, scale 0 to 100) | Plant response rating, Nightshade [7, 15]
